Laboratory results reported in US20260167621A1, “Three Cluster Galactose Type Compound, Conjugate, Making Method and Use Thereof” (GUANGZHOU RIBOBIO CO., LTD., priority 2023, published 2026).

Tests used:
[1] = target: T1, Hepatocyte ASGPR receptor (Homo sapiens, UniProt P07306); experiment: Binding affinity test with hepatocyte ASGPR receptor (Cy5 flow cytometry, binding saturation curve)
T1 construct: endogenous in cells
T1 sequence (P07306 1-291): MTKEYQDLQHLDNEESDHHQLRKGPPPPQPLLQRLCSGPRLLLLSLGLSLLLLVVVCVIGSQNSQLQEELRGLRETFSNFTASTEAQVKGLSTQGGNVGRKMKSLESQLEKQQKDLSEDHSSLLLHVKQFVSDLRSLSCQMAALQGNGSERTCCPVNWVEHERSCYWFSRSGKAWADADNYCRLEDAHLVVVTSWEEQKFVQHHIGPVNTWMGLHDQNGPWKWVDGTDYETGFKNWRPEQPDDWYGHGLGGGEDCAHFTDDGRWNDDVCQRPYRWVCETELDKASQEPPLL
T1 sequence (P07307 1-311 partner): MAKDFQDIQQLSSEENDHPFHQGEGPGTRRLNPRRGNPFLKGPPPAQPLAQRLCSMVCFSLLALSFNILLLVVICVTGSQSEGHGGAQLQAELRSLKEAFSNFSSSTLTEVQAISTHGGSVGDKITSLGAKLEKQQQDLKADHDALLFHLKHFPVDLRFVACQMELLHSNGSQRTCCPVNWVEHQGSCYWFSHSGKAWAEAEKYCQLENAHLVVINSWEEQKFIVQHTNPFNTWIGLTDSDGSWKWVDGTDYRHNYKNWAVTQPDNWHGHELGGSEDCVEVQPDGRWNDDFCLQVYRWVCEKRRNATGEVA
Procedure: Embodiment 1: Binding Affinity Test with Hepatocyte ASGPR Receptor
The compound G1, G4, G5 obtained from the examples 1, 4, 5, bound to the above mentioned siRNA respectively to form conjugates which were shown in Table 1.
G1-12, G4-12, G5-12 (1 uM) were diluted respectively in a gradient according to the following Table 2.
The cell concentration was diluted by DMEM culture medium with 2% FBS to 4*10^5 cells/mL.
200 μL cells of each sample and 200 μL siRNA were mixed uniformly, 200 μL cells of the blank control group and 200 μL culture medium were mixed uniformly, and were added in 3 wells of 96-well plate with U-shaped bottom, 100 μL each well. Samples of each concentration of all siRNA were placed in the ice box after sampling, and were placed in decolorization shaker and incubated in dark for 2 hours.
50 g of 96-well plate with U-shaped bottom was centrifuged for 2 minutes at 4° C. 80 μL supernatant was aspirated and discarded by pipette, 10 μg/mL propidium iodide was prepared by using of PBS with 2% FBS, 100 μL PI reagent was added in each well and was stained for 15 minutes. After staining, 50 g of 96-well plate with U-shaped bottom was centrifuged for 2 minutes at 4° C. After washed by PBS with 2% FBS for twice, 100 μL PBS with 2% FBS was added for resuspension, flow cytometer was used to test and count the average Cy5 fluorescence intensity of live cell population.

[2] = In vivo hepatic targeting of GalNac-siRNA (siRNA concentration of hepatic tissue by qPCR); parameters: species or system Balb/c-nu mice; settings: 100 mg/kg, tail vein injection once, livers 6 hours after administration; compared with negative control siRNA not linked to GalNAc
Procedure: Balb/c-nu mice, male, body weight ranged 18-22 g, were randomly divided into 3 groups, 5 mice/group, which respectively were blank control group, negative control group and targeting group, the administration dose was 100 mg/kg. The negative control group was administered by tail vein injection of negative control test substance (NC, Ribobio, siM200922112438) once, the targeting group was administered by tail vein injection of the obtained G1-12 test substance of example 6 once, the blank control group was administered an equal volume of saline. All animals' livers were immediately placed in liquid nitrogen after 6 hours of administration, then were saved at −80° C., the siRNA pharmaceutical concentration of hepatic tissue was tested by qPCR method. • 1. Drawing the standard curve. […] The average Ct values of each standard points were calculated based on the obtained Ct values, the log value of standard point concentration was abscissa, the obtained average Ct value was ordinate, the standard curve was drawn, the regression equation and R^2 were calculated, R^2>0.99. • 2. […] The mice liver samples were ground to powder by liquid nitrogen grinding method, and the weight of powder was measured. […] The sample Ct values were substituted into the regression equation of the standard curve, the siRNA content of samples was calculated.

Substance: G1-12: G1 bound to 5' end of SEQ ID NO: 1, paired with 5'-Cy5 SEQ ID NO: 2; structure Z1 (sense GUAUGUUGCCCGUUUGUCC; antisense GGACAAACGGGCAACAUACCU; G1 ligand 5'; Cy5 label; modified_base join(1,5,8,12,16) OTHER; deoxyribonucleotide modification; modified_base 3 OTHER; thiophosphorylated skeleton modification and deoxyribonucleotide modification; modified_base join(4,6,7,9,10,11,13,14,15,17) OTHER; 2'-fluoro modification; modified_base join(2,18,19) OTHER; thiophosphorylated skeleton modification and 2'-fluoro modification; modified_base join(1,5,7,9,11,13,15,17) OTHER; 2'-O-methyl modification; modified_base join(3,19,20,21) OTHER; thiophosphorylated skeleton modification and 2'-O-methyl modification; modified_base join(2,4) OTHER; …) [Compound G1-12]
- Bmax ([1]; average Cy5 fluorescence intensity of live cells minus blank, one site binding (hyperbola) fit, 0.9-100 nM, 2 hours on ice): 153854
- Kd ([1]; one site binding (hyperbola) fit of Cy5 fluorescence, 0.9-100 nM, 2 hours on ice, read-out: Kd (dissociation equilibrium constant)): 1.98 nM
- binding affinity with ASGPR receptor ([1]; statement in words from Table 3): reach a higher level
- distribution in mice liver (siRNA content of hepatic tissue) [2]: obviously increased
